From patent US12569170B2, “Paramagnetic sodium NMR macrocyclic-based biosensors, and associated methods” (Yale University, priority 2021, dated 2026)

Assay: Effect of cation competition on ^23Na chemical shift and linewidth in vitro
Format: physicochemical
Conditions: for ^23Na chemical shift / ^23Na linewidth: 150 mM NaCl
Description: FIGS. 13A-13C depicts effect of cation competition on ^23Na chemical shift and linewidth induced by 2 mM TmDOTP^5−. (FIG. 13A)^23Na NMR spectra for 150 mM NaCl solutions containing 2 mM TmDOTP^5− alone, and in the presence of 2 mM Ca^2+, 2 mM Mg^2+, 10 mM K^+, and all three of these ions. Ca^2+, Mg^2+, and K^+ were introduced as the salts CaCl2, MgCl2, and KBr, respectively. These concentrations were all chosen to represent physiological concentrations in the interstitial space. […] Chemical shift ranged between 2.433 ppm (FIG. 13B, alone) and 2.352 ppm (FIG. 13B, all), representing only a 3% change in the presence of all competing cations. Linewidth ranged between 0.2433 ppm (FIG. 13C, alone) and 0.2285 ppm (FIG. 13C, all), representing only a 6% change in the presence of all competing cations.
Upon translation of the present in vitro results to in vivo situations, certain confounding factors must be addressed. In the interstitial space, there are additional cations such as calcium (Ca^2+), magnesium (Mg^2+) and K^+ which will also bind to anionic contrast agents like TmDOTP^5−. However, physiologically their concentrations are low compared to Na^+. […] Additionally, there is a contribution to the chemical shift from bulk magnetic susceptibility (BMS) changes brought about by TmDOTP^5− in addition to the hyperfine shifts induced by interactions with Na^+. Experiments were performed on different DOTP^8− salts in phantoms parallel and perpendicular to the main magnetic field B0, and also spherical phantoms in which there was no BMS contribution. Only a small portion (˜2%) of the total chemical shift for TmDOTP^5− was due to BMS arising due to anisotropy of the paramagnetic susceptibility, and the remainder was the hyperfine shift.

[1] = 2 mM TmDOTP^5− with 2 mM Ca^2+, 2 mM Mg^2+ and 10 mM K^+ (all)

With O=P([O-])([O-])CN1CCN(CP(=O)([O-])[O-])CCN(CP(=O)([O-])[O-])CCN(CP(=O)([O-])[O-])CC1.[Na+].[Na+].[Na+].[Na+].[Na+].[Tm+3] [TmDOTP^5−, sodium thulium (III) 1,4,7,10-tetraazacyclododecane-1,4,7,10-tetrakis(methylenephosphonate)] the “change in ^23Na chemical shift in the presence of all competing cations” value (2 mM TmDOTP^5−, alone vs all) was 3%, the “change in ^23Na linewidth in the presence of all competing cations” value (2 mM TmDOTP^5−, alone vs all) was 6% and the “^23Na chemical shift” value (2 mM TmDOTP^5− alone) was 2.433 ppm. The “^23Na linewidth” value (2 mM TmDOTP^5− alone) was 0.2433 ppm, the “^23Na chemical shift” value [1] was 2.352 ppm and the “^23Na linewidth” value [1] was 0.2285 ppm. For the same compound, the “changes in ^23Na chemical shift and linewidth by cationic competition” value (typical in vivo concentrations of Ca^2+, Mg^2+, K^+) was “negligible changes”.
